From patent EP0048613B1, “4-0-Substituted -2-deoxystreptamine aminoglycoside derivatives, their preparation and formulations containing them” (ELI LILLY AND COMPANY, priority 1980, dated 1982)
Where two headings read alike, the source gives them in different places.

What was measured:
[1] = test system: Staphylococcus aureus 3055; test: Subcutaneous therapy of experimental bacterial infection in mice; format: in vivo; conditions: Staphylococcus aureus, 3055, sc, subcutaneous doses at 1 and 5 hours post infection, read-out: Effective dose (ED50)
Protocol: Table II illustrates the effective dose (ED50, effective dose to protect 50 percent of the test animals) for representative compounds of this invention against an experimental bacterial infection in mice.
The EDso values were determined as described by W. E. Wick et al., Journal of Bacteriology, 81 [No. 2], 233-235 (1961).

[2] = test system: Shigella sonnei N9; test: MIC, standard agar dilution test; format: cell-based; conditions: read-out: Minimum inhibitory concentration
Text: (§1) The antibacterial activity of the deprotected compounds of this invention is illustrated by the following in vitro and in vivo test data obtained with representative compounds. In Table I, the minimum inhibitory concentration (MIC) for representative compounds against a wide range of gram-positive and gram-negative bacteria is presented. The MIC values were obtained by the standard agar dilution test.

[3] = test system: Hemophilus influenzae 76; test: MIC, standard agar dilution test; format: cell-based; conditions: Haemophilus influenzae, read-out: Minimum inhibitory concentration
Text: as §1

[4] = test system: Klebsiella pneumoniae KAE; test: MIC, standard agar dilution test; format: cell-based; conditions: read-out: Minimum inhibitory concentration
Text: as §1

[5] = test system: Staphylococcus aureus X1.1; test: MIC, standard agar dilution test; format: cell-based; conditions: read-out: Minimum inhibitory concentration
Text: as §1

[6] = test system: Proteus morganii PR15; test: MIC, standard agar dilution test; format: cell-based; conditions: Morganella morganii, read-out: Minimum inhibitory concentration
Text: as §1

[7] = test system: Enterobacter aerogenes X68; test: MIC, standard agar dilution test; format: cell-based; conditions: Klebsiella aerogenes, read-out: Minimum inhibitory concentration
Text: as §1

[8] = test system: Serratia marcescens SE3; test: MIC, standard agar dilution test; format: cell-based; conditions: read-out: Minimum inhibitory concentration
Text: as §1

[9] = test system: Hemophilus influenzae C.L.; test: MIC, standard agar dilution test; format: cell-based; conditions: Haemophilus influenzae, read-out: Minimum inhibitory concentration
Text: as §1

[10] = test system: Streptococcus pneumoniae Park I; test: MIC, standard agar dilution test; format: cell-based; conditions: Streptococcus pneumoniae; read-out: Minimum inhibitory concentration
Text: as §1

[11] = test system: Bordetella bronchiseptica 16; test: MIC, standard agar dilution test; format: cell-based; conditions: read-out: Minimum inhibitory concentration
Text: as §1

[12] = test system: Proteus rettgeri PR7; test: MIC, standard agar dilution test; format: cell-based; conditions: Providencia rettgeri, read-out: Minimum inhibitory concentration
Text: as §1

[13] = test system: Serratia marcescens X99; test: MIC, standard agar dilution test; format: cell-based; conditions: read-out: Minimum inhibitory concentration
Text: as §1

[14] = test system: Salmonella typhimurium 1335; test: MIC, standard agar dilution test; format: cell-based; conditions: Salmonella enterica, read-out: Minimum inhibitory concentration
Text: as §1

[15] = test system: Staphylococcus epidermidis EPI2; test: MIC, standard agar dilution test; format: cell-based; conditions: read-out: Minimum inhibitory concentration
Text: as §1

[16] = test system: Enterobacter aerogenes EB17; test: MIC, standard agar dilution test; format: cell-based; conditions: Klebsiella aerogenes, read-out: Minimum inhibitory concentration
Text: as §1

[17] = test system: Staphylococcus aureus S13E; test: MIC, standard agar dilution test; format: cell-based; conditions: Staphylococcus aureus, S13E, read-out: Minimum inhibitory concentration
Text: as §1

[18] = test system: Staphylococcus aureus X400; test: MIC, standard agar dilution test; format: cell-based; conditions: read-out: Minimum inhibitory concentration
Text: as §1

[19] = test system: Streptococcus group D 9960; test: MIC, standard agar dilution test; format: cell-based; conditions: D9960, read-out: Minimum inhibitory concentration
Text: as §1

[20] = test system: Staphylococcus epidermidis EPI1; test: MIC, standard agar dilution test; format: cell-based; conditions: Staphylococcus epidermidis, EPI1; read-out: Minimum inhibitory concentration
Text: as §1

[21] = test system: Pseudomonas aeruginosa Ps18; test: MIC, standard agar dilution test; format: cell-based; conditions: read-out: Minimum inhibitory concentration
Text: as §1

[22] = test system: Citrobacter freundii CF17; test: MIC, standard agar dilution test; format: cell-based; conditions: read-out: Minimum inhibitory concentration
Text: as §1

[23] = test system: Enterobacter cloacae 265A; test: MIC, standard agar dilution test; format: cell-based; conditions: read-out: Minimum inhibitory concentration
Text: as §1

[24] = test system: Staphylococcus aureus V41; test: MIC, standard agar dilution test; format: cell-based; conditions: read-out: Minimum inhibitory concentration
Text: as §1

[25] = test system: Enterobacter aerogenes C32; test: MIC, standard agar dilution test; format: cell-based; conditions: Klebsiella aerogenes, read-out: Minimum inhibitory concentration
Text: as §1

[26] = test system: Proteus rettgeri C24; test: MIC, standard agar dilution test; format: cell-based; conditions: Providencia rettgeri, read-out: Minimum inhibitory concentration
Text: as §1

[27] = test system: Streptococcus pyogenes C203; test: MIC, standard agar dilution test; format: cell-based; conditions: read-out: Minimum inhibitory concentration
Text: as §1

[28] = test system: Enterobacter cloacae EB5; test: MIC, standard agar dilution test; format: cell-based; conditions: read-out: Minimum inhibitory concentration
Text: as §1

[29] = test system: Klebsiella pneumoniae X26; test: MIC, standard agar dilution test; format: cell-based; conditions: read-out: Minimum inhibitory concentration
Text: as §1

[30] = test system: Pseudomonas aeruginosa X239; test: MIC, standard agar dilution test; format: cell-based; conditions: read-out: Minimum inhibitory concentration
Text: as §1

[31] = test system: Salmonella heidelberg X514; test: MIC, standard agar dilution test; format: cell-based; conditions: Salmonella enterica, read-out: Minimum inhibitory concentration
Text: as §1

[32] = test system: Proteus inconstans PR33; test: MIC, standard agar dilution test; format: cell-based; conditions: Providencia alcalifaciens, read-out: Minimum inhibitory concentration
Text: as §1

[33] = test system: Pseudomonas aeruginosa X528; test: MIC, standard agar dilution test; format: cell-based; conditions: read-out: Minimum inhibitory concentration
Text: as §1

[34] = test system: Escherichia coli EC14; test: MIC, standard agar dilution test; format: cell-based; conditions: read-out: Minimum inhibitory concentration
Text: as §1

[35] = test system: Escherichia coli TEM; test: MIC, standard agar dilution test; format: cell-based; conditions: Escherichia coli, read-out: Minimum inhibitory concentration
Text: as §1

[36] = test system: Escherichia coli N10; test: MIC, standard agar dilution test; format: cell-based; conditions: read-out: Minimum inhibitory concentration
Text: as §1

[37] = test system: Streptococcus group D X66; test: MIC, standard agar dilution test; format: cell-based; conditions: DX66, read-out: Minimum inhibitory concentration
Text: as §1

CNC1C(OC2OC(CO)C(N)C(O)C2O)OC2CC(NC(=O)CN)C(OC3C(N)CC(N)C(O)C3O)OC2C1O (centres unmarked) [Test compound 3, 2′-N-Glycylapramycin]
> 128 µg/mL: MIC [19] | MIC [37]
30 mg/kg: ED50 ([1]; challenged with 1794 LD50's)
32 µg/mL: MIC [3] | MIC [8] | MIC [12] | MIC [17] | MIC [23] | MIC [28] | MIC [31] | MIC [32] | MIC [34]
128 µg/mL: MIC [6] | MIC [10] | MIC [11] | MIC [18] | MIC [21] | MIC [33]
64 µg/mL: MIC [14] | MIC [22] | MIC [24] | MIC [27] | MIC [30] | MIC [36]
16 µg/mL: MIC [2] | MIC [4] | MIC [5] | MIC [7] | MIC [9] | MIC [13] | MIC [16] | MIC [20] | MIC [25] | MIC [26]
8 µg/mL: MIC [15] | MIC [29] | MIC [35]

CCNC1CC2OC(OC3OC(CO)C(N)C(O)C3O)C(NC)C(O)C2OC1OC1C(N)CC(N)C(O)C1O (centres unmarked) [Test compound 4, 2′-N-ethylapramycin]
> 128 µg/mL: MIC [19]
16 µg/mL: MIC [3] | MIC [8] | MIC [9] | MIC [10] | MIC [18] | MIC [22] | MIC [27] | MIC [28] | MIC [31]
128 µg/mL: MIC [37]
2 µg/mL: MIC [15] | MIC [35]
4 µg/mL: MIC [5] | MIC [29]
64 µg/mL: MIC [30] | MIC [33]
32 µg/mL: MIC [6] | MIC [11] | MIC [21] | MIC [23]
< 4.35 mg/kg: ED50 ([1]; challenged with 68.1 LD50's)
8 µg/mL: MIC [2] | MIC [4] | MIC [7] | MIC [12] | MIC [13] | MIC [14] | MIC [16] | MIC [17] | MIC [20] | MIC [24] | MIC [25] | MIC [26] | MIC [32] | MIC [34] | MIC [36]
